The text below walks through data of US11191754B2, “Inhibitors of nucleotidyl transferases and uses in herpes and hepatitis viral infections therefor” (Saint Louis University, priority 2015, dated 2021).

For one data set, the system named is HSV-2. The data set can be described thus: Anti-HSV-2 replication assay (virus yield by plaque assay on Vero cells). The settings on record: for HSV-2 inhibition category: semi-quantitative replication inhibition assay. The class given is cell-based, herpes simplex virus 2 (HSV-2). The method, then: Vero cells were maintained in Dulbecco's modified Eagle's medium (DMEM) containing 3% newborn calf serum, 3% bovine growth serum, 2 mM L-glutamine and 100 IU/mL penicillin and 0.1 mg/mL streptomycin (P/S). HSV-1 #6 and HSV-2 #1 are de-identified clinical isolates from the Saint Louis University Hospital. Stocks were prepared after a single passage in cell culture and were titered by standard plaque assay (Knipe and Spang, 1982). Wild-type HSV-2 used in FIG. 3 was laboratory strain 333. […] Virus stocks were grown and titered on Vero cells (Morrison and Knipe, 1996).
Compounds to be screened were diluted in PBS supplemented to contain 2% newborn calf serum and 1% glutamine, and added in 100 μL volume to confluent cell monolayers in 24-well cluster plates. Immediately thereafter HSV-1 and HSV-2, diluted in the supplemented PBS medium, were added to the wells in 50 μl volume such that the final concentration of compound was 50 μM, 5 μM and 1 μM and the multiplicity of infection was 0.1. The plates were incubated at 37° C. for 1 hour and then virus-containing inoculum was removed and the wells were washed once in PBS. Compound, diluted to 50 μM, 5 μM and 1 μM in DMEM supplemented to contain 2% newborn calf serum and 1% each penicillin/streptomycin, was added at 0.5 mL/well. Plates were incubated at 37° C. an additional 23 hours, and then the plates were visually inspected through a phase contrast microscope for cytopathic effect, and for toxic effect. The entire contents of each well were collected by scraping. Samples were frozen at −80° C., and then subsequently thawed, sonicated, and infectious virus titer was determined by standard plaque assay on Vero cell monolayers. Because the compounds were dissolved at 10 mM in 100% DMSO, equivalent dilutions of DMSO were added to additional wells as a control for effects of the diluent. Each experiment was repeated once. EC50 values were determined as above except that serial dilutions of the compound to be tested were prepared starting at 50 μM. The inhibitory values were calculated by non-linear curve-fitting in GraphPad Prism.

The next data set deals with T1, human RNaseH1 (Homo sapiens, UniProt O60930).
T1 construct: made in house; host or cells: E. coli
T1 sequence (O60930 1-286): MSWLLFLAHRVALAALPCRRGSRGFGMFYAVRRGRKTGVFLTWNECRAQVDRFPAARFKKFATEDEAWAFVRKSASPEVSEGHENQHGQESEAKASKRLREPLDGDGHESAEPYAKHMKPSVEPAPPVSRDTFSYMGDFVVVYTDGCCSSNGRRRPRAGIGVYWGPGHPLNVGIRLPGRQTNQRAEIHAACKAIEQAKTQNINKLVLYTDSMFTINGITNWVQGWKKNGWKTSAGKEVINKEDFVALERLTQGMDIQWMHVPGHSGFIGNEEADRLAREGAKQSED
The data set can be described thus: Human RNaseH1 oligonucleotide-directed RNA cleavage assay. The class given is biochemical. As to conditions: recombinant human RNaseH1. How it is done:
Recombinant HBV RNaseH and human RNaseH1 were expressed in E. coli and partially purified by nickel-affinity chromatography as previously described in Tavis, et al. (2013). The enriched extracts were dialyzed into 50 mM HEPES pH 7.3, 300 mM NaCl, 20% glycerol, and 5 mM DTT and stored in liquid nitrogen.
RNaseH activity was measured using an oligonucleotide-directed RNA cleavage assay as previously described in Hu, et al., Tavis, et al., and Cai, et al. (2013; 2013; and 2014, respectfully). Briefly, 6 μL protein extract was mixed on ice with an internally ^32P-labeled 264 nt RNA derived from the Duck Hepatitis B Virus genome (DRF+ RNA) plus 3 μg oligonucleotide D2507- or its inverse-complement oligonucleotide D2526+ as a negative control. This mixture was incubated with test compounds in 50 mM Tris pH 8.0, 190 mM NaCl, 5 mM MgCl2, 3.5 mM DTT, 0.05% NP40, 6% glycerol, and 1% DMSO at 42° C. for 90 minutes. Cleavage products were resolved by denaturing polyacrylamide gel electrophoresis, detected by autoradiography, and quantified using ImageJ. Non-specific background values were determined from the incorrect oligonucleotide negative control lane and subtracted from all experimental values. IC50 values were then calculated with GraphPad Prism using three-parameter log(inhibitor) vs. response non-linear curve fitting with the curve minimum set to zero to reflect background subtraction.

Data set [1] is described as follows: Mouse liver microsome assay. The class given is in vitro ADME. As to conditions: for CLint scaled at 1 μM: mouse, liver microsomes. How it is done: Microsomal incubations are run at a final P450 concentration of 0.25 μM. […] The mixture is prewarmed for 5 min at 37° C. To initiate the reaction a 12 mM stock of NAPDH (1.2 mM, final concentration) is added to the warmed microsomal mixture and aliquots are removed at 0, 5, 10, 20 and 30 min. […] Samples are vortexed and spun down at 3200 rpm for 5 min. The supernant is transferred to 96-deep well plates and run on LC/MS/MS.
A general note: Liver microsomes are vesicles of endoplasmic reticulum, rich in cytochrome P450 enzymes.

For data set [2], the system named is TK-deficient mutant of HSV-2 strain 333, ΔTK-. The data set can be described thus: Replication of TK-deficient HSV-2 mutant in Vero cells. As to conditions: 5 μM, 24 h (FIG. 3). The class given is cell-based, herpes simplex virus 2 (HSV-2). How it is done:
Vero cells were maintained in Dulbecco's modified Eagle's medium (DMEM) containing 3% newborn calf serum, 3% bovine growth serum, 2 mM L-glutamine and 100 IU/mL penicillin and 0.1 mg/mL streptomycin (P/S). HSV-1 #6 and HSV-2 #1 are de-identified clinical isolates from the Saint Louis University Hospital. Stocks were prepared after a single passage in cell culture and were titered by standard plaque assay (Knipe and Spang, 1982). Wild-type HSV-2 used in FIG. 3 was laboratory strain 333. The TK-deficient mutant of HSV-2 strain 333, ΔTK-, contains a 180-bp KpnI-KpnI deletion in the UL23 open reading frame that abrogates TK activity (McDermott, et al, 1984). ΔTK—was the generous gift of Jim Smiley. Virus stocks were grown and titered on Vero cells (Morrison and Knipe, 1996).
ACV is a nucleoside analog prodrug that must be phosphorylated by the viral thymidine kinase (TK) for it to become a substrate for the viral DNA polymerase (Elion, et al., 1977). HSV TK-deficient mutants are therefore insensitive to ACV. […] Vero cells were infected with a laboratory strain of HSV-2 and an engineered TK-deficient mutant of the same strain. […] ACV 5 μM inhibited wild-type HSV-2 replication 100-fold, but it had little effect on the TK-mutant (FIG. 3).

Several values for one entry are separate records, joined by “and”; a condition that tells them apart may be missing. Identical values can stand only once. Like-named read-outs stand apart in the source and are kept apart here. Where only a bound is given, the exact number is not on record here.

For `Cc1cc(CC(C)CC(C)(C)C)n(O)c(=O)c1` (stereo not shown) [#191, Piroctone olamine], the HSV-2 inhibition category result with HSV-2 (1 μM) is given as “intermediate (1 to 3 log10 suppression, which equals 10- to 1,000-fold reduction)”; in the data set on HSV-2 (5 μM) it was “strong (3 to 6 log10 suppression, or 1,000- to 1,000,000-fold reduction)”; with HSV-2 (50 μM) it was “strong (3 to 6 log10 suppression, or 1,000- to 1,000,000-fold reduction)”. In addition, the “HSV-2 Log10 suppression 1 μM” value with HSV-2 (1 μM, Vero cells, moi 0.1, 24 h, relative to DMSO control) is 1.70 log10. Also, the “HSV-2 replication inhibition, fold” value in the data set with HSV-2 (5 μM) was 39,000 fold. The “suppression of replication of three primary clinical isolates of HSV-2” value with HSV-2 (5 μM, Vero cells, moi 0.1, 24 h (FIG. 2)) is greater than 4.7 log10. The “HSV-2 Log10 suppression 5 μM” value in the data set with HSV-2 (5 μM, Vero cells, moi 0.1, 24 h, relative to DMSO control) was 4.59 log10 and 4.53 log10. Also, the “inhibition of wild-type HSV-2” value with HSV-2 (5 μM, laboratory strain 333, Vero cells, 24 h (FIG. 3)) is “efficiently inhibited”. Further, the “HSV-2 Log10 suppression 50 μM” value with HSV-2 (50 μM, Vero cells, moi 0.1, 24 h, relative to DMSO control) stood at 4.25 log10. Moreover, the “Anti-human RNase H1” value at human RNaseH1 was “did not inhibit”. The ER in data set [1] (extraction ratio, mouse liver microsomes) is recorded as 0.09. Besides, in data set [1] (mouse liver microsomes), the Non-P450 turn-over entry was “No”. Besides, the half-life at 1 μM in data set [1] (mouse liver microsomes, 1 μM compound, read-out: t ½) was greater than 2 h. Besides, the CLint scaled at 1 μM turned out to be 8 mL/min/kg in data set [1] (1 μM compound, read-out: CL ‘hep) and 9 mL/min/kg in data set [1] (1 μM compound, read-out: CL’int). Further, the “inhibition of TK-mutant HSV-2” value in data set [2] is on record as “efficiently inhibited”.
